For `CCOCc1nc2c(N)nc3cc(-c4ccsc4)ccc3c2n1CC(C)(C)O` [Example 125, 1-[4-Amino-2-ethoxymethyl-7-(thiophen-3-yl)-1H-imidazo[4,5-c]quinolin-1-yl]-2-methylpropan-2-ol], the melting point was 204 to 205 °C. With `CCOCc1nc2c(N)nc3cc(-c4cccnc4)ccc3c2n1Cc1ccc(CNS(C)(=O)=O)cc1` [Example 493, N-{4-[4-Amino-2-ethoxymethyl-7-(pyridin-3-yl)-1H-imidazo[4,5-c]quinolin-1-ylmethyl]benzyl}methanesulfonamide] the melting point was 228 to 229 °C. `CC(=O)c1cccc(-c2ccc3nc(N)c4ncn(CC(C)C)c4c3c2)c1` [Example 120, 1-{3-[4-Amino-1-(2-methylpropyl)-1H-imidazo[4,5-c]quinolin-8-yl]phenyl}ethanone] gave a melting point of 217 to 218 °C. For `CCCCCCCCCCCCCCCC(=O)N1CCC(Cn2c(COCC)nc3c(N)nc4cc(-c5cccnc5)ccc4c32)CC1` (hydrate or solvate) [Example 181, 2-Ethoxymethyl-1-[(1-palmitoylpiperidin-4-yl)methyl]-7-(pyridin-3-yl)-1H-imidazo[4,5-c]quinolin-4-amine], the melting point was 72 to 75 °C. Compound `CCCc1nc2c(N)nc3cc(/C=C/c4cccnc4)ccc3c2n1CC(C)C` (hydrate or solvate) [Example 446, (E)-1-(2-Methylpropyl)-2-propyl-7-[2-(pyridin-3-yl)vinyl]-1H-imidazo[4,5-c]quinolin-4-amine] has a melting point of 190 to 192 °C. For `CCOCc1nc2c(N)nc3cc(-c4cncc(CO)c4)ccc3c2n1CCCCN1CCCS1(=O)=O` [Example 155, (5-{4-Amino-1-[4-(1,1-dioxidoisothiazolidin-2-yl)butyl]-2-ethoxymethyl-1H-imidazo[4,5-c]quinolin-7-yl}pyridin-3-yl)methanol], the melting point was 184.5 to 186 °C. Work on `Cc1ccc(-c2ccc3nc(N)c4ncn(CC(C)C)c4c3c2)cc1C` [Example 119, 8-(3,4-Dimethylphenyl)-1-(2-methylpropyl)-1H-imidazo[4,5-c]quinolin-4-amine] yielded a melting point of 204 to 205 °C. `CCOCc1nc2c(N)nc3cc(-c4cccnc4)ccc3c2n1CCCCNC(=O)NC(C)C` [Example 379, N-{4-[4-Amino-2-ethoxymethyl-7-(pyridin-3-yl)-1H-imidazo[4,5-c]quinolin-1-yl]butyl}-N′-(1-methylethyl)urea] gave a melting point of 192 to 194 °C. Work on `CCCc1nc2c(N)nc3cc(/C=C/c4ccc(C)s4)ccc3c2n1CC(C)C` [Example 442, (E)-1-(2-Methylpropyl)-7-[2-(5-methylthiophen-2-yl)vinyl]-2-propyl-1H-imidazo[4,5-c]quinolin-4-amine] yielded a melting point of 182 to 185 °C. With `CCCCCCC1(CCCCCC)c2cc(-c3ccc4c(c3)nc(N)c3nc(COCC)n(CC(C)(C)O)c34)ccc2-c2ccc(-c3ccc4c(c3)nc(N)c3nc(COCC)n(CC(C)(C)O)c34)cc21` [Example 475, 1-(4-Amino-7-{7-[4-amino-2-ethoxymethyl-1-(2-hydroxy-2-methylpropyl)-1H-imidazo[4,5-c]quinolin-7-yl]-9,9-dihexyl-9H-fluoren-2-yl}-2-ethoxymethyl-1H-imidazo[4,5-c]quinolin-1-yl)-2-methylpropan-2-ol] the melting point was 261 to 265 °C. In the case of `CCc1nc2c(N)nc3cc(-c4cccnc4)ccc3c2n1CC1CCN(C(=O)OC(C)(C)C)CC1` [Example 404, tert-Butyl 4-{[4-amino-2-ethyl-7-(pyridin-3-yl)-1H-imidazo[4,5-c]quinolin-1-yl]methyl}piperidine-1-carboxylate], the melting point is reported as 229 to 231 °C. With `CCCc1nc2c(N)nc3cc(-c4cccnc4)ccc3c2n1CC1CCN(C(=O)OC(C)(C)C)CC1` [Example 409, tert-Butyl 4-{[4-amino-2-propyl-7-(pyridin-3-yl)-1H-imidazo[4,5-c]quinolin-1-yl]methyl}piperidine-1-carboxylate] the melting point was 209 to 211 °C. `Nc1nc2cc(-c3ccccc3)ccc2c2c1nc(CC1CC1)n2CCOc1ccccc1` [Example 196, 2-Cyclopropylmethyl-1-(2-phenoxyethyl)-7-phenyl-1H-imidazo[4,5-c]quinolin-4-amine] gave a melting point of 188 to 189 °C. `CCCc1nc2c(N)nc3cc(-c4cccnc4)ccc3c2n1CC(C)(C)O` [Example 418, 1-[4-Amino-2-propyl-7-(pyridin-3-yl)-1H-imidazo[4,5-c]quinolin-1-yl]-2-methylpropan-2-ol] showed a melting point of 238.5 to 241 °C. In the case of `CCCc1nc2c(N)nc3cc(/C=C/c4cccc(OC)c4)ccc3c2n1CC(C)C` [Example 443, (E)-7-[2-(3-Methoxyphenyl)vinyl]-1-(2-methylpropyl)-2-propyl-1H-imidazo[4,5-c]quinolin-4-amine], the melting point is reported as 181 to 183 °C. `CCOCc1nc2c(N)nc3cc(-c4cccnc4)ccc3c2n1CCCCS(=O)(=O)N(C)C` [Example 365, Dimethyl 4-[4-amino-2-ethoxymethyl-7-(pyridin-3-yl)-1H-imidazo[4,5-c]quinolin-1-yl]butane-1-sulfonamide] showed a melting point of 205 to 206 °C. `CCOCc1nc2c(N)nc3cc(-c4cccc(C(=O)NCC(C)C)c4)ccc3c2n1CCCOC` [Example 171, 3-[4-Amino-2-ethoxymethyl-1-(3-methoxypropyl)-1H-imidazo[4,5-c]quinolin-7-yl]-N-(2-methylpropyl)benzamide] showed a melting point of 209 to 210 °C. `CCOCc1nc2c(N)nc3cc(-c4cccnc4)ccc3c2n1CCCOC` [Example 164, 2-Ethoxymethyl-1-(3-methoxypropyl)-7-(pyridin-3-yl)-1H-imidazo[4,5-c]quinolin-4-amine] gave a melting point of 151 to 152 °C. Work on `CCOCc1nc2c(N)nc3cc(-c4cccc(C(=O)N5CCOCC5)c4)ccc3c2n1CCCOC` [Example 174, {3-[4-Amino-2-ethoxymethyl-1-(3-methoxypropyl)-1H-imidazo[4,5-c]quinolin-7-yl]phenyl}morpholin-4-ylmethanone] yielded a melting point of 174 to 176 °C. In the case of `CCCc1nc2c(N)nc3cc(-c4cccnc4)ccc3c2n1CCCCNC(=O)C(C)C` (hydrate or solvate) [Example 381, N-{4-[4-Amino-2-propyl-7-(pyridin-3-yl)-1H-imidazo[4,5-c]quinolin-1-yl]butyl}-2-methylpropanamide], the melting point is reported as 168 to 170 °C. For `CCOCc1nc2c(N)nc3cc(-c4ccsc4)ccc3c2n1CC(C)C` [Example 9, 2-Ethoxymethyl-1-isobutyl-7-(thiophen-3-yl)-1H-imidazo[4,5-c]quinolin-4-amine], the melting point was 187 to 189 °C. `CCOCc1nc2c(N)nc3cc(-c4cccnc4)ccc3c2n1CC1CCN(C(=O)C(C)C)CC1` (hydrate or solvate) [Example 179, 2-Ethoxymethyl-1-[(1-isobutyrylpiperidin-4-yl)methyl]-7-(pyridin-3-yl)-1H-imidazo[4,5-c]quinolin-4-amine] gave a melting point of 130 to 132 °C. For `COCCc1nc2c(N)nc3ccc(-c4cccc(C(C)=O)c4)cc3c2n1CCCN1CCCC1=O` (hydrate or solvate) [Example 189, 1-{3-[8-(3-Acetylphenyl)-4-amino-2-(2-methoxyethyl)-1H-imidazo[4,5-c]quinolin-1-yl]propyl}pyrrolidin-2-one], the melting point was 164 to 167 °C. Compound `CCOCc1nc2c(N)nc3cc(-c4cccnc4)ccc3c2n1CC(C)(C)O` [Example 126, 1-[4-Amino-2-ethoxymethyl-7-(pyridin-3-yl)-1H-imidazo[4,5-c]quinolin-1-yl]-2-methylpropan-2-ol] has a melting point of 197 to 199 °C. Work on `CCOCc1cncc(-c2ccc3c(c2)nc(N)c2nc(COCC)n(CC(C)(C)O)c23)c1` [Example 134, 1-[4-Amino-2-ethoxymethyl-7-(5-ethoxymethylpyridin-3-yl)-1H-imidazo[4,5-c]quinolin-1-yl]-2-methylpropan-2-ol] yielded a melting point of 156 to 156.5 °C. For `CCCc1nc2c(N)nc3cc(/C=C/c4ccc(OC)cc4)ccc3c2n1CC(C)C` [Example 444, (E)-7-[2-(4-Methoxyphenyl)vinyl]-1-(2-methylpropyl)-2-propyl-1H-imidazo[4,5-c]quinolin-4-amine], the melting point was 201 to 202 °C. Work on `CCOCc1nc2c(N)nc3cc(-c4cccnc4)ccc3c2n1CC1CCN(C(=O)C2CCCO2)CC1` (stereo not shown) [Example 182, 2-Ethoxymethyl-7-(pyridin-3-yl)-1-{[1-(tetrahydrofuran-2-ylcarbonyl)piperidin-4-yl]methyl}-1H-imidazo[4,5-c]quinolin-4-amine] yielded a melting point of 191 to 192 °C. With `COCCc1nc2c(N)nc3ccc(-c4cccnc4)cc3c2n1CCCN1CCCC1=O` [Example 188, 1-{3-[4-Amino-2-(2-methoxyethyl)-8-(pyridin-3-yl)-1H-imidazo[4,5-c]quinolin-1-yl]propyl}pyrrolidin-2-one] the melting point was 221 to 224 °C. In the case of `CCOCc1nc2c(N)nc3cc(-c4cccnc4)ccc3c2n1CCNC(=O)NC(C)C` [Example 388, N-{2-[4-Amino-2-ethoxymethyl-7-(pyridin-3-yl)-1H-imidazo[4,5-c]quinolin-1-yl]ethyl}-N′-(1-methylethyl)urea], the melting point is reported as 194 to 196 °C. In the case of `CCOCc1nc2c(N)nc3cc(-c4ccccc4)ccc3c2n1CC1CCNCC1` [Example 192, 2-Ethoxymethyl-7-phenyl-1-(piperidin-4-ylmethyl)-1H-imidazo[4,5-c]quinolin-4-amine], the melting point is reported as 142 to 143 °C. `CCOCc1nc2c(N)nc3cc(-c4cccnc4)ccc3c2n1CC(C)(C)OCCS(C)(=O)=O` [Example 363, 2-Ethoxymethyl-1-{2-[2-(methanesulfonyl)ethoxy]-2-methylpropyl}-7-(pyridin-3-yl)-1H-imidazo[4,5-c]quinolin-4-amine] showed a melting point of 202 to 204 °C. In the case of `CCCCn1c(COCC)nc2c(N)nc3ccc(-c4cccnc4)cc3c21` [Example 19, 1-Butyl-2-ethoxymethyl-8-(pyridin-3-yl)-1H-imidazo[4,5-c]quinolin-4-amine], the melting point is reported as 220 to 222 °C. Compound `COCc1nc2c(N)nc3cc(-c4cccnc4)ccc3c2n1CC(C)(C)O` [Example 396, 1-[4-Amino-2-methoxymethyl-7-(pyridin-3-yl)-1H-imidazo[4,5-c]quinolin-1-yl]-2-methylpropan-2-ol] has a melting point of 225 to 225.5 °C. `COCCc1nc2c(N)nc3cc(-c4ccsc4)ccc3c2n1CC(C)(C)O` [Example 137, 1-[4-Amino-2-(2-methoxyethyl)-7-(thiophen-3-yl)-1H-imidazo[4,5-c]quinolin-1-yl]-2-methylpropan-2-ol] showed a melting point of 233 to 234 °C.

From patent US7598382B2, “Aryl substituted imidazoquinolines” (Coley Pharmaceutical Group, Inc., priority 2002, dated 2009)
